Test results reported in article PMC6055169 (Proceedings of the National Academy of Sciences of the …, 2018).
Like-named read-outs stand apart in the source and are kept apart here.

Columns and labels:
Assay type in all cases: cell-based
TRPV1 [1] = target: T1, TRPV1 (Mus musculus, UniProt Q704Y3); details: HEK293-A, read-out: % reduction at 50 μM
TRPV1 [2] = target: T1, TRPV1; assay: Fluo-4 calcium imaging in TRPV1-transfected HEK293A cells, […]
TRPA1 [3] = target: T2, TRPA1 (Mus musculus, UniProt Q8BLA8); details: HEK293-A, read-out: % reduction at 50 μM
T2 sequence (Q8BLA8 whole entry): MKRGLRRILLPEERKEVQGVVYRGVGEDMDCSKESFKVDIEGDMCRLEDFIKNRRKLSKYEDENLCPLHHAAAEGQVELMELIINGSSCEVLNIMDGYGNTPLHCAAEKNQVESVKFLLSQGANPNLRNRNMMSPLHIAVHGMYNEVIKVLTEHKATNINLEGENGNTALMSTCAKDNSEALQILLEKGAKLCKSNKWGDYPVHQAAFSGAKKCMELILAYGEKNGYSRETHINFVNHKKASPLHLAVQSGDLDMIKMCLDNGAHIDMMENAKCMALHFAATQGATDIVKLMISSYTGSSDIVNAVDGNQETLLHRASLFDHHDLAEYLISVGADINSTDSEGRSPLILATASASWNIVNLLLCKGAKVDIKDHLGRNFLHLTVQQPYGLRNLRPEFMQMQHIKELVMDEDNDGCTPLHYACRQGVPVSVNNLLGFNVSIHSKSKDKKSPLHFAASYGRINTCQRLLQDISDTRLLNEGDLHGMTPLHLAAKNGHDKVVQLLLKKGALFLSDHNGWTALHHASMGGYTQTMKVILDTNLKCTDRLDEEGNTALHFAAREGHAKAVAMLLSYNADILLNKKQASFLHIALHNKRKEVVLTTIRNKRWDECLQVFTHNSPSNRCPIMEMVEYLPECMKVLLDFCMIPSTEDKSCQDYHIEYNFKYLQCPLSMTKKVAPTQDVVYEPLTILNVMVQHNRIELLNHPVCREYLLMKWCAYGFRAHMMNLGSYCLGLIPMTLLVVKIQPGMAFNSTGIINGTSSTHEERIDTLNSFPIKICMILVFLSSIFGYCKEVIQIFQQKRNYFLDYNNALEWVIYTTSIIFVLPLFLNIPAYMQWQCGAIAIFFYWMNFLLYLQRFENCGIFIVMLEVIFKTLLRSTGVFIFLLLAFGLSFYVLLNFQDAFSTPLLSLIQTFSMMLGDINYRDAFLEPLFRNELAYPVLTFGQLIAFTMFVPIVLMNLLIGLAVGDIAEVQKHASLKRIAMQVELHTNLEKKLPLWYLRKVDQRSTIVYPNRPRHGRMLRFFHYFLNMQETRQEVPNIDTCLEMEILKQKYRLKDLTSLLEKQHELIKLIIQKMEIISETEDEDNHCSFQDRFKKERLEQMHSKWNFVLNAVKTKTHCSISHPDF

TRPV1 [4] = target: T1, TRPV1
TRPA1 [5] = target: T2, TRPA1; details: HEK293-A, read-out: % reduction at 50 μM; remark: listed apart in the source
TRPV4 = TRPV4 (Rattus norvegicus, UniProt Q9ERZ8); assay: Fluo-4 calcium imaging in transfected HEK293A cells, agonist at […]
Chain of TRPV4 (Q9ERZ8 whole entry): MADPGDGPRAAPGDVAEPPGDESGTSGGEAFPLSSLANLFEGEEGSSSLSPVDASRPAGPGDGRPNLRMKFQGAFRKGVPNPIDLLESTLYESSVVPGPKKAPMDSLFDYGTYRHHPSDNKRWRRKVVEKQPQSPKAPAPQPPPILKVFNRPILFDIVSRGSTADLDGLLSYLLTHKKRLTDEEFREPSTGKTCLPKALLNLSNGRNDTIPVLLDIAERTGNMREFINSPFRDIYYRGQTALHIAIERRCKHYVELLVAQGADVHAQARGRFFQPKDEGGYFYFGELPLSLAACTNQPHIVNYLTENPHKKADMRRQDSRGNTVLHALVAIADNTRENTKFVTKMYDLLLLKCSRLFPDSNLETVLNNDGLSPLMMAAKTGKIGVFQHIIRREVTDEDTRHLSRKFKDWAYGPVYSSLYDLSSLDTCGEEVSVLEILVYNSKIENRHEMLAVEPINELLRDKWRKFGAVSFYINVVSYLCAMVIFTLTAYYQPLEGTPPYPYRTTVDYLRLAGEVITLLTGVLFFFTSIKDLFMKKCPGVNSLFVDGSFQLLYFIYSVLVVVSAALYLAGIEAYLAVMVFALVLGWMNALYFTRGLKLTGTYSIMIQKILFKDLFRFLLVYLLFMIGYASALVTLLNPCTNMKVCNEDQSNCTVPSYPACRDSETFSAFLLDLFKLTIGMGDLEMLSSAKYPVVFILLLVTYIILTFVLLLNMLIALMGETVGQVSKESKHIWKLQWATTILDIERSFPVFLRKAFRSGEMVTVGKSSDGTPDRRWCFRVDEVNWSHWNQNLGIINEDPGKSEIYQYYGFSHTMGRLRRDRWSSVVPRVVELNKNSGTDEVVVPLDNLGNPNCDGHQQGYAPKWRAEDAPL

TRPA1 [6] = target: T2, TRPA1; assay: as above
TRPV1 [7] = target: T1, TRPV1; assay: as above

T1 sequence (Q704Y3 whole entry): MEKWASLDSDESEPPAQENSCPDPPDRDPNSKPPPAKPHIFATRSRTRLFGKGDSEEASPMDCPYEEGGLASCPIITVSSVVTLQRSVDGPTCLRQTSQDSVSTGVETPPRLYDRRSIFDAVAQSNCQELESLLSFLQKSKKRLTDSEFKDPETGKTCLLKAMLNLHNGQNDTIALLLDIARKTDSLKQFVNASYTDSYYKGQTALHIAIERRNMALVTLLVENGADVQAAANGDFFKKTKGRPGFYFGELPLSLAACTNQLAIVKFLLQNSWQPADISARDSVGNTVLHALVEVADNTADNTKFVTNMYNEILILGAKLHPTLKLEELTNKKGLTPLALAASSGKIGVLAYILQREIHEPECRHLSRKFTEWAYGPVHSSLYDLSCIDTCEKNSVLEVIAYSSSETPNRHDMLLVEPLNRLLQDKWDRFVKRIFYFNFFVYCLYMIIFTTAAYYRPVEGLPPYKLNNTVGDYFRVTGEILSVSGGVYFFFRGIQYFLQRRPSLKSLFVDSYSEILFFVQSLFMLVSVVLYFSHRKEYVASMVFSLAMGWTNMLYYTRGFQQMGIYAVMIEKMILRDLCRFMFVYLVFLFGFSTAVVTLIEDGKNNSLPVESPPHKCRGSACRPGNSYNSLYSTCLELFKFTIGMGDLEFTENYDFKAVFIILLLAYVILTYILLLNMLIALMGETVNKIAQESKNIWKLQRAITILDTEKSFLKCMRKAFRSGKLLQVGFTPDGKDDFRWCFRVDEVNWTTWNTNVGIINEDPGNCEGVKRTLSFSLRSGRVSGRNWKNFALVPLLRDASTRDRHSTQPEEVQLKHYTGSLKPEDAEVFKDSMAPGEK

Question: How did the inhibition at 50 µM (TRPV1 [1]) turn out when `CCCCCCCC/C=C\CCCCCCCC(=O)N[C@@H](CC(N)=O)C(=O)O` [C18:1-Asn] was run?
Answer: 49 ± 7%

Question: How did the “Fluo-4 calcium imaging in TRPV1-transfected HEK293A cells, 50 μM” value (TRPV1 [2]) turn out when `CCCCCCCC/C=C\CCCCCCCC(=O)N[C@H](CCC(N)=O)C(=O)O` [C18:1-D-Gln] was run?
Answer: the unnatural enantiomer C18:1-D-Gln fully antagonized capsaicin-induced TRPV1 calcium flux

Question: What does the source list for `CCCCCCCC/C=C\CCCCCCCC(=O)N[C@@H](CCC(N)=O)C(=O)O` [C18:1-Gln, N-oleoyl-glutamine]?
Answer: inhibition at 50 µM (TRPA1 [3]): 94 ± 5%; IC50 (TRPV1 [4]): 1300 nM

Question: For `CCCCC/C=C\C/C=C\C/C=C\C/C=C\CCCC(=O)N[C@@H](Cc1ccccc1)C(=O)O` [C20:4-Phe], which inhibition at 50 µM (TRPA1 [5]) is on record?
Answer: 87 ± 5%

Question: `CCCCC/C=C\C/C=C\C/C=C\C/C=C\CCCC(=O)N[C@@H](CO)C(=O)O` [C20:4-Ser] was tested. Which inhibition at 50 µM (TRPA1 [5]) did it give?
Answer: 68 ± 8%

Question: With `CC(C)C[C@H](NC(=O)c1cc2ccccc2s1)C(=O)N1CCN(C(=O)[C@H](CO)NS(=O)(=O)c2ccc(Cl)cc2Cl)CC1` [GSK1016790A] as the compound, how does the “Fluo-4 calcium imaging in transfected HEK293A cells, agonist at 0.2 μM” value (TRPV4) read?
Answer: only channel-transfected, RFP^+ cells, but not untransfected, RFP^− cells, exhibited a calcium flux in response to the corresponding agonist

Question: With `C=CCN=C=S` [allyl isothiocyanate] as the compound, how does the “Fluo-4 calcium imaging in transfected HEK293A cells, agonist at 10 μM” value (TRPA1 [6]) read?
Answer: only channel-transfected, RFP^+ cells, but not untransfected, RFP^− cells, exhibited a calcium flux in response to the corresponding agonist

Question: With `COc1cc(CNC(=O)CCCC/C=C/C(C)C)ccc1O` [capsaicin] as the compound, how does the “Fluo-4 calcium imaging in transfected HEK293A cells, agonist at 10 μM” value (TRPV1 [7]) read?
Answer: capsaicin treatment induced a robust increase in the intracellular calcium concentration in the TRPV1-transfected, RFP^+ cells
